Results on 2 substances are retold here after patent US4767742A, “Hirudin-PA and its derivatives, process for manufacturing these and the use of these substances” (Plantorgan-Werk Heinrich G. F. Christensen, KG, priority 1984, dated 1988).

Data set [1] concerns the target T1, thrombin (Homo sapiens, UniProt P00734). The experiment in a line: dissociation constant of the complex with thrombin. To be noted: read-out: dissociations constant Ki of the complex with thrombin. It counts as binding.
In data set [2] the test system is other proteinases of the blood clotting cascade. Nature of the data set: specificity against proteinases of the blood clotting cascade. It counts as biochemical.
Data set [3] addresses T1, thrombin. Nature of the data set: specific antithrombin activity. It counts as biochemical.

As usually defined, the Ki is a dissociation constant, usually derived from enzyme kinetics or from competition with a known ligand. On to hirudin, for which, at thrombin [1], the Ki is roughly 0.03 nM. For the same substance, the “inhibition of other proteinases of the blood clotting cascade” value in data set [2] is reported as “inhibits no other proteinases of the blood clotting cascade”.

Take hirudin-PA: on thrombin [1], the Ki was determined as 0.04 nM. Also, the specific antithrombin activity with thrombin [3] was 680-720 IU/mg.
